Data from patent US4001409A, “Injectable formulations of 7-[D-α-amino-α-(p-hydroxyphenyl)acetamido]-3-(1,2,3-triazol- 5-ylthiomethyl)-3-cephem-4-carboxylic acid” (priority 1975, dated 1977).
Converted amounts (≈) assume the structure as drawn. “And” between values parts separate entries of the source, which are not always exact repeats. Identical values can stand only once. Counter-ions that a name gives are not always drawn. Like-named read-outs stand apart in the source and are kept apart here.

Columns and labels:
[1] = tested on: E. coli A9675; assay: Minimum Inhibitory Concentration, tube dilution; type: cell-based; conditions: Escherichia coli
[2] = tested on: Sal. enteritidis A9531; assay: Minimum Inhibitory Concentration, tube dilution; type: cell-based; conditions: Salmonella enterica
[3] = tested on: K. pneumoniae A9977; assay: Minimum Inhibitory Concentration, tube dilution; conditions: Klebsiella pneumoniae
[4] = tested on: Str. pyogenes A9604; assay: Minimum Inhibitory Concentration, tube dilution; type: cell-based; conditions: Streptococcus pyogenes
Source text: *50% Nutrient Broth - 45% Antibiotic Assay Broth

[5] = tested on: Pr. mirabilis A9900; assay: Minimum Inhibitory Concentration, tube dilution; conditions: Proteus mirabilis
[6] = tested on: K. pneumoniae A15130; assay: Minimum Inhibitory Concentration, tube dilution; conditions: Klebsiella pneumoniae
[7] = tested on: S. aureus meth.-resist. A15097; assay: Minimum Inhibitory Concentration, tube dilution; type: cell-based; conditions: Staphylococcus aureus
[8] = tested on: Ent. cloacae A9659; assay: Minimum Inhibitory Concentration, tube dilution; conditions: Enterobacter cloacae
[9] = tested on: Pr. morganii A15153; assay: Minimum Inhibitory Concentration, tube dilution; conditions: Morganella morganii
[10] = tested on: E. coli Juhl A15119; assay: Minimum Inhibitory Concentration, tube dilution; conditions: Escherichia coli, JUHLA15119
[11] = tested on: Ps. aeruginosa A9843A; assay: microbe, parasite or virus in culture; conditions: Pseudomonas aeruginosa
[12] = tested on: Ent. cloacae A9657; assay: Minimum Inhibitory Concentration, tube dilution; conditions: Enterobacter cloacae
[13] = tested on: S. aureus BX1633-2 A9606; assay: Minimum Inhibitory Concentration, tube dilution; type: cell-based; conditions: Staphylococcus aureus
[14] = tested on: S. aureus Smith A9537; assay: Minimum Inhibitory Concentration, tube dilution; type: cell-based; conditions: Staphylococcus aureus, at 10^-^4 dilution, overnight, 37° C.
[15] = tested on: Ser. marcescens A20019; assay: Minimum Inhibitory Concentration, tube dilution; conditions: Serratia marcescens
[16] = tested on: Ent. cloacae A9656; assay: Minimum Inhibitory Concentration, tube dilution; conditions: Enterobacter cloacae
[17] = physchem; conditions: water
[18] = pH of solution; type: physicochemical
[19] = Stability of aqueous solutions; type: physicochemical; conditions: alkaline pH, i.e. pH~7.0 or higher
Source text: A. Stability of Aqueous Solutions of Amorphous
Monohydrate and Sodium Levulinate Mixture at […]

[20] = known forms; cannot be administered intravenously; cited from earlier work
[21] = tested on: Gram-positive and Gram-negative organisms; conditions: oral and parenteral; cited from earlier work
[22] = Blood levels in mice after intramuscular administration; conditions: mouse, im, 10 mg/kg
[23] = Bio-assay
[24] = Blood levels in mice after oral administration; conditions: mouse, 100 mg/kg
[25] = tested on: D. pneumoniae A9585; assay: Minimum Inhibitory Concentration, tube dilution; conditions: Streptococcus pneumoniae
[26] = Heat stability of solids; type: physicochemical; conditions: for Stability (loss): 1 month at 56° C., 43800 min; for Heat stability (loss): Procedure D
[27] = tested on: vein and muscle; conditions: in vivo
[28] = Solubility in water / concentration of true solutions
[29] = at 10^-^4 dilution, overnight, 37° C., read-out: M.I.C.
[30] = +5% serum, 50% Nutrient Broth - 45% Antibiotic Assay Broth, overnight, 37° C., read-out: M.I.C.
[31] = BX16332A9606, at 10^-^2 dil'n, overnight, 37° C.

## CC(=O)OCC1=C(C(=O)O)N2C(=O)[C@@H](NC(=O)Cc3cccs3)[C@H]2SC1 [Cephalothin]
[1]
  MIC: 32 µg/mL (≈ 80.7 µM)
[2]; [29]
  MIC: 0.06 µg/mL (≈ 0.151 µM)
[3]
  MIC: 2 µg/mL (≈ 5.04 µM)
[4]; [30]
  MIC: 0.06 µg/mL (≈ 0.151 µM)
[5]
  MIC: 1 µg/mL (≈ 2.52 µM)
[6]
  MIC: 16 µg/mL (≈ 40.4 µM)
[7]
  MIC: 4 µg/mL (≈ 10.1 µM)
[7]; at 10^-^3 dil'n, 37° C
  MIC: 1 µg/mL (≈ 2.52 µM)
[8]
  MIC: > 125 µg/mL
[9]
  MIC: > 125 µg/mL
[10]
  MIC: 8 µg/mL (≈ 20.2 µM)
[11]
  MIC: > 125 µg/mL
[12]
  MIC: 2 µg/mL (≈ 5.04 µM)
[13]; BX16332A9606
  MIC: 0.25 µg/mL (≈ 0.631 µM)
[13]; [31]
  MIC: 0.25 µg/mL (≈ 0.631 µM)
[14]; SMITHA9537, +50% serum
  MIC: 0.5 µg/mL (≈ 1.26 µM)
[15]
  MIC: > 125 µg/mL
[16]
  MIC: > 125 µg/mL

## CC(=O)CCC(=O)[O-].[Na+] [sodium levulinate]
[17]
  solubility: > 300 mg/mL
[18]
  pH: 6.5-8.0

## N[C@@H](C(=O)NC1C(=O)N2C(C(=O)O)=C(CSc3cnn[nH]3)CS[C@H]12)c1ccc(O)cc1 (stereo partly drawn) [compound I, 7-[D-α-amino-α-(p-hydroxyphenyl)acetamido]-3-(1,2,3-triazol-5-ylthiomethyl)-3-cephem-4-carboxylic acid]
[19]
  splitting off of the triazole moiety at the 3-position: found to split off rapidly at alkaline pH
[20]
  solubility in water: relatively low solubility in water
[21]
  therapeutic effectiveness against infections: therapeutically effective against infections caused by both Gram-positive and Gram-negative organisms

## N[C@@H](C(=O)NC1C(=O)N2C(C(=O)O)=C(CSc3cnn[nH]3)CSC12)c1ccc(O)cc1 (stereo partly drawn) [Cephalosporin 1,2-propylene glycolate, 7-[D-α-amino-α-(p-hydroxyphenyl)acetamido]-3-(1,2,3-triazol-5-ylthiomethyl)-3-cephem-4-carboxylic acid 1,2-propylene glycolate]
[1]; [29]
  MIC: 4 µg/mL (≈ 8.65 µM)
[2]
  MIC: 0.5 µg/mL (≈ 1.08 µM)
[3]
  MIC: 1 µg/mL (≈ 2.16 µM)
[4]; [30]
  MIC: 0.03 µg/mL (≈ 0.0649 µM)
[22]
  concentration at 0.5 h: 17400 ng/mL
  concentration at 1 h: 12300 ng/mL
  concentration at 1.5 h: 9000 ng/mL
[5]
  MIC: 0.5 µg/mL (≈ 1.08 µM)
[23]
  Bio-assay: 880-890 units/mg.
[24]
  concentration at 1 h: 44700 ng/mL
  concentration at 2 h: 26600 ng/mL
  concentration at 3.5 h: 9700 ng/mL
  concentration at 9.5 h: 45800 ng/mL
[6]
  MIC: 2 µg/mL (≈ 4.32 µM)
[25]
  MIC: 0.13 µg/mL (≈ 0.281 µM)
[8]
  MIC: 32 µg/mL (≈ 69.2 µM)
[9]
  MIC: 32 µg/mL (≈ 69.2 µM)
[10]
  MIC: 1 µg/mL (≈ 2.16 µM)
[11]
  MIC: > 125 µg/mL
[20]
  solubility in water: relatively low solubility in water
[12]
  MIC: 1 µg/mL (≈ 2.16 µM)
[13]; [31]
  MIC: 2 µg/mL (≈ 4.32 µM)
[13]; BX16332A9606, at 10^-^3 dil'n, overnight, 37° C.
  MIC: 0.5 µg/mL (≈ 1.08 µM)
[14]; SMITHA9537, +50% serum
  MIC: 2 µg/mL (≈ 4.32 µM)
[14]; SMITHA9537, read-out: M.I.C.
  MIC: 0.25 µg/mL (≈ 0.541 µM)
[15]
  MIC: > 125 µg/mL
[16]
  MIC: > 125 µg/mL

## CC1=C(C(=O)O)N2C(=O)[C@@H](NC(=O)[C@H](N)c3ccccc3)[C@H]2SC1 [Cephalexin]
[1]
  MIC: 16 µg/mL (≈ 46.1 µM)
[2]
  MIC: 4 µg/mL (≈ 11.5 µM)
[3]
  MIC: 4 µg/mL (≈ 11.5 µM)
[4]
  MIC: 0.5 µg/mL (≈ 1.44 µM)
[5]
  MIC: 4 µg/mL (≈ 11.5 µM)
[6]
  MIC: 8 µg/mL (≈ 23 µM)
[7]; at 10^-^3 dil'n, 37° C
  MIC: 16 µg/mL (≈ 46.1 µM)
[7]; at 10^-^3 dil'n, 28° C, read-out: M.I.C.
  MIC: 32 µg/mL (≈ 92.1 µM)
[25]
  MIC: 1 µg/mL (≈ 2.88 µM)
[8]
  MIC: > 125 µg/mL
[10]
  MIC: 8 µg/mL (≈ 23 µM)
[12]
  MIC: 4 µg/mL (≈ 11.5 µM)
[13]; BX16332A9606, at 10^-^3 dil'n, overnight, 37° C., read-out: M.I.C.
  MIC: 2 µg/mL (≈ 5.76 µM)
[14]; SMITHA9537, +50% serum, read-out: M.I.C.
  MIC: 2 µg/mL (≈ 5.76 µM)
[14]; SMITHA9537, read-out: M.I.C.
  MIC: 1 µg/mL (≈ 2.88 µM)
[15]
  MIC: > 125 µg/mL
[16]
  MIC: > 125 µg/mL

## N[C@@H](C(=O)NC1C(=O)N2C(C(=O)O)=C(CSc3cnn[nH]3)CSC12)c1ccc(O)cc1 (stereo partly drawn) [amorphous monohydrate, 7-[D-α-amino-α-(p-hydroxyphenyl)acetamido]-3-(1,2,3-triazol-5-ylthiomethyl)-3-cephem-4-carboxylic acid amorphous monohydrate]
[23]; monohydrate
  Bio-assay: 900-935 units/mg.

## N[C@@H](C(=O)NC1C(=O)N2C(C(=O)O)=C(CSc3cnn[nH]3)CSC12)c1ccc(O)cc1 (stereo partly drawn) [amorphous mono-hydrochloride, 7[D-α-amino-α-(p-hydroxyphenyl)acetamido]-3-(1,2,3-triazol-5-ylthiomethyl)-3-cephem-4-carboxylic acid amorphous mono-hydrochloride]
[26]; Procedure Da
  Stability (loss): Less than 10%
[26]; Procedure Db
  Stability (loss): Less than 10%
[26]; 56° C., 4 weeks, 40320 min
  Heat stability (loss): 1-6%
[26]; 100° C., 24 hours
  Heat stability (loss): 7-14%
[26]; 100° C., 48 hours
  Heat stability (loss): 10-15%
[23]; mono-hydrochloride
  Bio-assay: 900 µg/mg and 820 to 850 µg/mg
[27]
  venous irritation and muscle damage: significant venous irritation and muscle damage

## CC(=O)C(=O)[O-].[Na+] [sodium pyruvate]
[28]
  solubility: > 500 mg/mL
[18]
  pH: 6.5-8.0
